One may read the mass density as the mass of a sample divided by its volume. What is called viscosity is the internal friction of a fluid under shear.

± gives the expanded uncertainty stated by the source.

For one series the following is noted: 348.15 K; 101.33 kPa; Liquid; Vibrating tube method.
For `CCCCCCCC/C=C\CCCCCCCC(=O)[O-].CCCCCC[N+](CCCCCC)(CCCCCC)CCCCCC` [tetrahexylammonium oleate], the mass density is on record as 857 ± 5.3 kg/m3.
Still for that read-out and setting: in the case of `CCCCCCCC/C=C\CCCCCCCC(=O)[O-].CCCCCCCC[N+](CCCCCCCC)(CCCCCCCC)CCCCCCCC` [tetraoctylammonium oleate] it was 845.2 ± 7.1 kg/m3.

Staying with this series, now noted: 353.15 K; 101.33 kPa; Liquid; Concentric cylinders viscometry.
Consider `CCCCC(CC)CCC(=O)[O-].CCCCCCCC[N+](C)(CCCCCCCC)CCCCCCCC` [methyltrioctylammonium 4-ethyloctanoate], for which the viscosity was found to be 116.1 ± 15 mPa·s.
On the same count and under the same terms, in the case of `CCCCCCCC/C=C\CCCCCCCC(=O)[O-].CCCCCCCC[N+](C)(CCCCCCCC)CCCCCCCC` [methyltrioctylammonium oleate] it was 92.3 ± 5.9 mPa·s.
As to `CCCCCCCC/C=C\CCCCCCCC(=O)[O-].CCCCCC[N+](CCCCCC)(CCCCCC)CCCCCC` [tetrahexylammonium oleate], the viscosity came to 67.5 ± 4.2 mPa·s.
On the same count and under the same terms, in the case of `CCCCCCCC/C=C\CCCCCCCC(=O)[O-].CCCCCCCC[N+](CCCCCCCC)(CCCCCCCC)CCCCCCCC` [tetraoctylammonium oleate] it was 64.1 ± 4.1 mPa·s.

The same series, now with this note: 353.15 K; 101.33 kPa; Liquid; Vibrating tube method.
`CCCCC(CC)CCC(=O)[O-].CCCCCCCC[N+](C)(CCCCCCCC)CCCCCCCC` [methyltrioctylammonium 4-ethyloctanoate]: the mass density came to 856.8 ± 17 kg/m3.
On the same count and under the same terms, in the case of `CCCCCCCC/C=C\CCCCCCCC(=O)[O-].CCCCCCCC[N+](C)(CCCCCCCC)CCCCCCCC` [methyltrioctylammonium oleate] it was 854.9 ± 7.2 kg/m3.
Same read-out and setting: in the case of `CCCCCCCC/C=C\CCCCCCCC(=O)[O-].CCCCCC[N+](CCCCCC)(CCCCCC)CCCCCC` [tetrahexylammonium oleate] it was 854 ± 5.3 kg/m3.
Take `CCCCCCCC/C=C\CCCCCCCC(=O)[O-].CCCCCCCC[N+](CCCCCCCC)(CCCCCCCC)CCCCCCCC` [tetraoctylammonium oleate]: the mass density came to 842.2 ± 7.1 kg/m3.

Still in this series, the particulars now being: 358.15 K; 101.33 kPa; Liquid; Concentric cylinders viscometry.
As for `CCCCC(CC)CCC(=O)[O-].CCCCCCCC[N+](C)(CCCCCCCC)CCCCCCCC` [methyltrioctylammonium 4-ethyloctanoate], the viscosity is given as 92.4 ± 12 mPa·s.
Still for that read-out and setting: in the case of `CCCCCCCC/C=C\CCCCCCCC(=O)[O-].CCCCCCCC[N+](C)(CCCCCCCC)CCCCCCCC` [methyltrioctylammonium oleate] it was 74.9 ± 4.8 mPa·s; in that of `CCCCCCCC/C=C\CCCCCCCC(=O)[O-].CCCCCC[N+](CCCCCC)(CCCCCC)CCCCCC` [tetrahexylammonium oleate], 55.5 ± 3.4 mPa·s.
The same measure, in the same setting: in the case of `CCCCCCCC/C=C\CCCCCCCC(=O)[O-].CCCCCCCC[N+](CCCCCCCC)(CCCCCCCC)CCCCCCCC` [tetraoctylammonium oleate] it was 53.5 ± 3.4 mPa·s.

Still in this series, the particulars now being: 358.15 K; 101.33 kPa; Liquid; Vibrating tube method.
On to `CCCCC(CC)CCC(=O)[O-].CCCCCCCC[N+](C)(CCCCCCCC)CCCCCCCC` [methyltrioctylammonium 4-ethyloctanoate], for which the mass density came out at 853.9 ± 17 kg/m3.
The same measure, in the same setting: in the case of `CCCCCCCC/C=C\CCCCCCCC(=O)[O-].CCCCCCCC[N+](C)(CCCCCCCC)CCCCCCCC` [methyltrioctylammonium oleate] it was 852 ± 7.2 kg/m3; in that of `CCCCCCCC/C=C\CCCCCCCC(=O)[O-].CCCCCC[N+](CCCCCC)(CCCCCC)CCCCCC` [tetrahexylammonium oleate], 851 ± 5.3 kg/m3.
Same read-out and setting: in the case of `CCCCCCCC/C=C\CCCCCCCC(=O)[O-].CCCCCCCC[N+](CCCCCCCC)(CCCCCCCC)CCCCCCCC` [tetraoctylammonium oleate] it was 839.2 ± 7.1 kg/m3.

The series is the same for the next values; noted with them: 363.15 K; 101.33 kPa; Liquid; Concentric cylinders viscometry.
As for `CCCCC(CC)CCC(=O)[O-].CCCCCCCC[N+](C)(CCCCCCCC)CCCCCCCC` [methyltrioctylammonium 4-ethyloctanoate], the viscosity is on record as 74.1 ± 9.4 mPa·s.
`CCCCCCCC/C=C\CCCCCCCC(=O)[O-].CCCCCCCC[N+](C)(CCCCCCCC)CCCCCCCC` [methyltrioctylammonium oleate]: the viscosity was 61.8 ± 3.9 mPa·s.
In the case of `CCCCCCCC/C=C\CCCCCCCC(=O)[O-].CCCCCC[N+](CCCCCC)(CCCCCC)CCCCCC` [tetrahexylammonium oleate], the viscosity is 45.5 ± 2.8 mPa·s.
On the same count and under the same terms, in the case of `CCCCCCCC/C=C\CCCCCCCC(=O)[O-].CCCCCCCC[N+](CCCCCCCC)(CCCCCCCC)CCCCCCCC` [tetraoctylammonium oleate] it was 44.3 ± 2.8 mPa·s.

Still in this series, the particulars now being: 363.15 K; 101.33 kPa; Liquid; Vibrating tube method.
As to `CCCCC(CC)CCC(=O)[O-].CCCCCCCC[N+](C)(CCCCCCCC)CCCCCCCC` [methyltrioctylammonium 4-ethyloctanoate], the mass density is 850.9 ± 17 kg/m3.
On the same count and under the same terms, in the case of `CCCCCCCC/C=C\CCCCCCCC(=O)[O-].CCCCCCCC[N+](C)(CCCCCCCC)CCCCCCCC` [methyltrioctylammonium oleate] it was 849.1 ± 7.2 kg/m3; in that of `CCCCCCCC/C=C\CCCCCCCC(=O)[O-].CCCCCC[N+](CCCCCC)(CCCCCC)CCCCCC` [tetrahexylammonium oleate], 847.9 ± 5.3 kg/m3.
Same read-out and setting: in the case of `CCCCCCCC/C=C\CCCCCCCC(=O)[O-].CCCCCCCC[N+](CCCCCCCC)(CCCCCCCC)CCCCCCCC` [tetraoctylammonium oleate] it was 836.1 ± 7.1 kg/m3.

Staying with this series, now noted: Crystal; DTA.
Consider `CCCCCCCC/C=C\CCCCCCCC(=O)[O-].CCCCCCCC[N+](C)(CCCCCCCC)CCCCCCCC` [methyltrioctylammonium oleate], for which the Normal melting temperature was -5.9 ± 0.5 °C.
In the case of `CCCCCCCC/C=C\CCCCCCCC(=O)[O-].CCCCCCCC[N+](CCCCCCCC)(CCCCCCCC)CCCCCCCC` [tetraoctylammonium oleate], the Normal melting temperature was -29.5 ± 0.7 °C.

The series is the same for the next values; noted with them: Glass; DSC.
In the case of `CCCCC(CC)CCC(=O)[O-].CCCCCCCC[N+](C)(CCCCCCCC)CCCCCCCC` [methyltrioctylammonium 4-ethyloctanoate], the Glass transition temperature was -76.6 ± 1 °C.
On to `CCCCCCCC/C=C\CCCCCCCC(=O)[O-].CCCCCCCC[N+](C)(CCCCCCCC)CCCCCCCC` [methyltrioctylammonium oleate], for which the Glass transition temperature is -56.3 ± 1.2 °C.
Same read-out and setting: in the case of `CCCCCCCC/C=C\CCCCCCCC(=O)[O-].CCCCCC[N+](CCCCCC)(CCCCCC)CCCCCC` [tetrahexylammonium oleate] it was -83.2 ± 0.8 °C; in that of `CCCCCCCC/C=C\CCCCCCCC(=O)[O-].CCCCCCCC[N+](CCCCCCCC)(CCCCCCCC)CCCCCCCC` [tetraoctylammonium oleate], -79.8 ± 1.5 °C.

The values above are taken from the NIST ThermoML archive (doi:10.1016/j.jct.2016.04.021).
